{
  "source": "patent US7803930B2",
  "about": "“Antisense modulation of apolipoprotein B-expression” (Isis Pharmaceuticals, Inc., priority 2002, dated 2010)",
  "key": {"[1]": {"system": "apolipoprotein B mRNA", "experiment": "ob/ob mice (Example 50): apolipoprotein B mRNA levels in liver", "format": "in vivo, mouse", "conditions": "liver, high fat high cholesterol diet, 50 mg/kg i.p. twice a week, six weeks", "method": "(§1) Ob/ob mice receiving a high fat, high cholesterol diet (60% kcal fat supplemented with 0.15% cholesterol) were treated with one of several oligonucleotides to evaluate their effect on apolipoprotein B-related phenotypic endpoints in ob/ob mice. After overnight fasting, mice from each group were dosed intraperitoneally twice a week with 50 mg/kg of ISIS 147483 (SEQ ID NO: 79), or 147764 (SEQ ID NO: 109), or the controls ISIS 116847 (SEQ ID NO: 857), or 141923 (SEQ ID NO: 858), or saline for six weeks. At study termination and forty eight hours after the final injections, animals were sacrificed and evaluated for target mRNA levels in liver, cholesterol and triglyceride levels, liver enzyme levels, serum glucose levels, and PTEN levels."}, "[2]": {"experiment": "ob/ob mice (Example 50): cholesterol, lipid, triglyceride, liver enzyme and glucose levels", "format": "in vivo, mouse", "conditions": "high fat high cholesterol diet, 50 mg/kg i.p. twice a week, six weeks", "method": "as §1"}, "[3]": {"system": "PTEN", "experiment": "ob/ob mice (Example 50): PTEN levels", "format": "in vivo, mouse", "conditions": "high fat high cholesterol diet, 50 mg/kg i.p. twice a week, six weeks", "method": "as §1"}, "[4]": {"system": "apolipoprotein B mRNA", "experiment": "High fat fed mice, time-dependent effects and after cessation of dosing (Example 51): apolipoprotein B mRNA in liver", "format": "in vivo, mouse", "conditions": "liver, 50 mg/kg i.p. twice weekly", "method": "(§2) In a further embodiment of the invention, the inhibition of apolipoprotein B mRNA in mice was compared to liver oligonucleotide concentration, total cholesterol, LDL-cholesterol and HDL-cholesterol. Male C57Bl/6 mice receiving a high fat diet (60% fat) were evaluated over the course of 6 weeks for the effects of treatment with twice weekly intraperitoneal injections of 50 mg/kg ISIS 147764 (SEQ ID NO: 109) or 50 mg/kg of the control oligonucleotide ISIS 141923 (SEQ ID NO: 858). Control animals received saline treatment. Animals were sacrificed after 2 days, 1, 2, 4 and 6 weeks of treatment. Each treatment group at each time point consisted of 8 mice.\n(§3) Target expression in liver was measured by real-time PCR as described by other examples herein and is expressed as percent inhibition relative to saline treated mice. Total, LDL- and HDL-cholesterol levels were measured by routine clinical analysis using an Olympus Clinical Analyzer (Olympus America Inc., Melville, N.Y.) and are presented in mg/dL. Results from saline-treated animals are shown for comparison. Intact oligonucleotide in liver tissue was measured by capillary gel electrophoresis and is presented as micrograms of oligonucleotide per gram of tissue.\n(§4) The oligonucleotide treatments described in this example were duplicated to investigate the extent to which effects of ISIS 147764 persist following cessation of treatment. Mice were treated as described, and sacrificed 1, 2, 4, 6 and 8 weeks following the cessation of oligonucleotide treatment."}, "[5]": {"experiment": "High fat fed mice (Example 51): intact oligonucleotide in liver tissue by capillary gel electrophoresis", "format": "in vivo, mouse", "conditions": "50 mg/kg i.p. twice weekly", "method": "as §2, §3, §4"}, "[6]": {"experiment": "High fat fed mice (Example 51): total, LDL- and HDL-cholesterol levels", "format": "in vivo, mouse", "conditions": "50 mg/kg i.p. twice weekly", "method": "as §2, §3, §4"}, "[7]": {"system": "Cynomolgous monkey apolipoprotein B mRNA", "experiment": "Apolipoprotein B mRNA in primary Cynomolgous monkey hepatocytes, real-time PCR", "format": "cell-based", "conditions": "cynomolgous monkey primary hepatocytes; 10, 50, 150 or 300 nM", "method_in_brief": "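Primary cynomolgus hepatocytes treated with antisense oligonucleotides at 10, 50, 150 or 300 nM (some sets 10–150 nM) for 24 or 48 h, depending on the set. mRNA quantified by real-time PCR using human apoB and GAPDH primers/probes. Values are percent inhibition normalized to untreated cells, averaged over 2–6 experiments.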"}, "[8]": {"system": "apolipoprotein B protein", "experiment": "Apolipoprotein B protein secreted from primary Cynomolgous monkey hepatocytes, ELISA", "format": "cell-based", "conditions": "primary Cynomolgous hepatocytes; 150 and 300 nM", "method": "Apolipoprotein B protein secreted from primary Cynomolgous hepatocytes treated with 150 and 300 nM of oligonucleotide was measured by ELISA using an apolipoprotein B protein specific kit (ALerCHEK Inc., Portland, Me.). Each result represents the average of 3 experiments.\nApolipoprotein B protein secreted primary Cynomolgous hepatocytes treated with 50 and 150 nM of ISIS 315089 and ISIS 281625 was measured by ELISA using an apolipoprotein B protein specific kit (ALerCHEK Inc., Portland, Me.). Each result represents the average of 3 experiments.\nApolipoprotein B protein secreted from primary Cynomolgous hepatocytes treated with 50 and 150 nM of ISIS 271009 and ISIS 301027 was measured by ELISA using an apolipoprotein B protein specific kit (ALerCHEK Inc., Portland, Me.). Each result represents the average of 3 experiments."}, "[9]": {"system": "apolipoprotein B protein", "experiment": "Apolipoprotein B protein in primary Cynomolgous monkey hepatocytes, immunoblot", "format": "cell-based", "method": "Additionally, protein was isolated from oligonucleotide-treated primary Cynomolgous monkey hepatocytes and subjected to immunoblot analysis to further assess apolipoprotein B protein expression. Immunoblotting was performed as described herein, using an antibody to human apolipoprotein B protein (US Biologicals, Swampscott, Mass.)."}, "[10]": {"conditions": "high fat fed male C57Bl/6 mice, treatment period 1 week"}, "[11]": {"conditions": "high fat fed male C57Bl/6 mice, treatment period 2 weeks"}, "[12]": {"conditions": "high fat fed male C57Bl/6 mice, treatment period 4 weeks"}, "[13]": {"conditions": "high fat fed male C57Bl/6 mice, treatment period 6 weeks"}, "[14]": {"conditions": "high fat fed male C57Bl/6 mice, treatment period 2 days"}, "[15]": {"conditions": "high fat fed mice, 1 week after cessation of dosing"}, "[16]": {"conditions": "high fat fed mice, 2 weeks after cessation of dosing"}, "[17]": {"conditions": "high fat fed mice, 4 weeks after cessation of dosing"}, "[18]": {"conditions": "high fat fed mice, 6 weeks after cessation of dosing"}, "[19]": {"conditions": "high fat fed mice, 8 weeks after cessation of dosing"}},
  "data": [
    {"substance": "141923 (CCTTCCCTGAAGGTTCCTCC; listed as DNA, chemistry not given here) [compound 141923]", "values": [
      {"measurement": "mRNA % control ApoB", "setting": "[1]", "result": 100.0, "unit": "% control"},
      {"measurement": "Glucose", "setting": "[2]", "result": 328.5, "unit": "mg/dL"},
      {"measurement": "Lipoproteins CHOL", "setting": "[2]", "result": 646.3, "unit": "mg/dL"},
      {"measurement": "Lipoproteins TRIG", "setting": "[2]", "result": 196.5, "unit": "mg/dL"},
      {"measurement": "Liver Enzymes ALT", "setting": "[2]", "result": 701.7, "unit": "IU/L"},
      {"measurement": "Liver Enzymes AST", "setting": "[2]", "result": 329.3, "unit": "IU/L"},
      {"measurement": "mRNA % control PTEN", "setting": "[3]", "result": 113.6, "unit": "% control"},
      {"measurement": "% Inhibition apolipoprotein B mRNA", "setting": "[4]; [10]", "result": 4, "unit": "%"},
      {"measurement": "% Inhibition apolipoprotein B mRNA", "setting": "[4]; [11]", "result": 7, "unit": "%"},
      {"measurement": "% Inhibition apolipoprotein B mRNA", "setting": "[4]; [12]", "result": 0, "unit": "%"},
      {"measurement": "% Inhibition apolipoprotein B mRNA", "setting": "[4]; [13]", "result": 0, "unit": "%"},
      {"measurement": "% Inhibition apolipoprotein B mRNA", "setting": "[4]; [14]", "result": 9, "unit": "%"},
      {"measurement": "% Inhibition apolipoprotein B mRNA", "setting": "[4]; [15]", "result": 15, "unit": "%"},
      {"measurement": "% Inhibition apolipoprotein B mRNA", "setting": "[4]; [16]", "result": 2, "unit": "%"},
      {"measurement": "% Inhibition apolipoprotein B mRNA", "setting": "[4]; [17]", "result": 7, "unit": "%"},
      {"measurement": "% Inhibition apolipoprotein B mRNA", "setting": "[4]; [18]", "result": 11, "unit": "%"},
      {"measurement": "% Inhibition apolipoprotein B mRNA", "setting": "[4]; [19]", "result": 7, "unit": "%"},
      {"measurement": "Intact oligonucleotide", "setting": "[5]; [10]", "result": 61, "unit": "µg/g"},
      {"measurement": "Intact oligonucleotide", "setting": "[5]; [11]", "result": 152, "unit": "µg/g"},
      {"measurement": "Intact oligonucleotide", "setting": "[5]; [12]", "result": 261, "unit": "µg/g"},
      {"measurement": "Intact oligonucleotide", "setting": "[5]; [13]", "result": 631, "unit": "µg/g"},
      {"measurement": "Intact oligonucleotide", "setting": "[5]; [14]", "result": 58, "unit": "µg/g"},
      {"measurement": "Intact oligonucleotide", "setting": "[5]; [15]", "result": 297, "unit": "µg/g"},
      {"measurement": "Intact oligonucleotide", "setting": "[5]; [16]", "result": 250, "unit": "µg/g"},
      {"measurement": "Intact oligonucleotide", "setting": "[5]; [17]", "result": 207, "unit": "µg/g"},
      {"measurement": "Intact oligonucleotide", "setting": "[5]; [18]", "result": 212, "unit": "µg/g"},
      {"measurement": "Intact oligonucleotide", "setting": "[5]; [19]", "result": 128, "unit": "µg/g"},
      {"measurement": "HDL-cholesterol", "setting": "[6]; [10]", "result": 116, "unit": "mg/dL"},
      {"measurement": "LDL-cholesterol", "setting": "[6]; [10]", "result": 27, "unit": "mg/dL"},
      {"measurement": "Total cholesterol", "setting": "[6]; [10]", "result": 146, "unit": "mg/dL"},
      {"measurement": "HDL-cholesterol", "setting": "[6]; [11]", "result": 122, "unit": "mg/dL"},
      {"measurement": "LDL-cholesterol", "setting": "[6]; [11]", "result": 27, "unit": "mg/dL"},
      {"measurement": "Total cholesterol", "setting": "[6]; [11]", "result": 152, "unit": "mg/dL"},
      {"measurement": "HDL-cholesterol", "setting": "[6]; [12]", "result": 128, "unit": "mg/dL"},
      {"measurement": "LDL-cholesterol", "setting": "[6]; [12]", "result": 38, "unit": "mg/dL"},
      {"measurement": "Total cholesterol", "setting": "[6]; [12]", "result": 169, "unit": "mg/dL"},
      {"measurement": "HDL-cholesterol", "setting": "[6]; [13]", "result": 166, "unit": "mg/dL"},
      {"measurement": "LDL-cholesterol", "setting": "[6]; [13]", "result": 56, "unit": "mg/dL"},
      {"measurement": "Total cholesterol", "setting": "[6]; [13]", "result": 225, "unit": "mg/dL"},
      {"measurement": "HDL-cholesterol", "setting": "[6]; [14]", "result": 70, "unit": "mg/dL"},
      {"measurement": "LDL-cholesterol", "setting": "[6]; [14]", "result": 8, "unit": "mg/dL"},
      {"measurement": "Total cholesterol", "setting": "[6]; [14]", "result": 99, "unit": "mg/dL"},
      {"measurement": "HDL-cholesterol", "setting": "[6]; [15]", "result": 121, "unit": "mg/dL"},
      {"measurement": "LDL-cholesterol", "setting": "[6]; [15]", "result": 24, "unit": "mg/dL"},
      {"measurement": "Total cholesterol", "setting": "[6]; [15]", "result": 158, "unit": "mg/dL"},
      {"measurement": "HDL-cholesterol", "setting": "[6]; [16]", "result": 105, "unit": "mg/dL"},
      {"measurement": "LDL-cholesterol", "setting": "[6]; [16]", "result": 24, "unit": "mg/dL"},
      {"measurement": "Total cholesterol", "setting": "[6]; [16]", "result": 139, "unit": "mg/dL"},
      {"measurement": "HDL-cholesterol", "setting": "[6]; [17]", "result": 135, "unit": "mg/dL"},
      {"measurement": "LDL-cholesterol", "setting": "[6]; [17]", "result": 32, "unit": "mg/dL"},
      {"measurement": "Total cholesterol", "setting": "[6]; [17]", "result": 185, "unit": "mg/dL"},
      {"measurement": "HDL-cholesterol", "setting": "[6]; [18]", "result": 136, "unit": "mg/dL"},
      {"measurement": "LDL-cholesterol", "setting": "[6]; [18]", "result": 32, "unit": "mg/dL"},
      {"measurement": "Total cholesterol", "setting": "[6]; [18]", "result": 186, "unit": "mg/dL"},
      {"measurement": "HDL-cholesterol", "setting": "[6]; [19]", "result": 108, "unit": "mg/dL"},
      {"measurement": "LDL-cholesterol", "setting": "[6]; [19]", "result": 24, "unit": "mg/dL"},
      {"measurement": "Total cholesterol", "setting": "[6]; [19]", "result": 151, "unit": "mg/dL"}
    ]},
    {"substance": "GCCTCAGTCTGCTTTACACC (gapmer: ten 2'-deoxy gap, five-nucleotide wings, wing chemistry not given here) [ISIS 326358]", "values": [
      {"measurement": "inhibition of apolipoprotein B mRNA expression", "setting": "[7]", "result": "in a dose- and time-dependent manner"},
      {"measurement": "secretion of apolipoprotein B protein (ELISA)", "setting": "[8]", "result": "decrease"},
      {"measurement": "apolipoprotein B expression (immunoblot)", "setting": "[9]", "result": "substantial reduction"}
    ]}
  ]
}
